Columns and labels:
Experiment in all cases: relative viability (nuclei count vs DMSO), 5 days (fraction); higher = more cells survive
NCI-H1666 = test system: NCI-H1666
In short: (§1)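 The day after seeding in 1536-well plates, lung cancer cell lines were treated by pin tool with a single drug, or with a fixed anchor-drug dose together with five library-drug doses (not always all listed) in √10 steps. After 5 days, a combined fix-and-stain solution (final 0.05% Triton X-100, 1% formaldehyde, 1 ug/ml Hoechst) was added. Nuclei counted on 4× images gave relative viability as treated counts over vehicle counts, reported as the median of duplicate plates.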

NCI-H2087 = test system: NCI-H2087
In short: as §1

NCI-H441 = test system: NCI-H441
In short: as §1

NCI-H1355 = test system: NCI-H1355
In short: as §1

NCI-H2405 = test system: NCI-H2405
In short: as §1

PC-14 = test system: PC-14
In short: as §1

NCI-H2023 = test system: NCI-H2023
In short: as §1

LK-2 = test system: LK-2
In short: as §1

NCI-H2126 = test system: NCI-H2126
In short: as §1

HOP-62 = test system: HOP-62
In short: as §1

SW 1573 = test system: SW 1573
In short: as §1

NCI-H322M = test system: NCI-H322M
In short: as §1

COR-L23 = test system: COR-L23
In short: as §1

ChaGo-K-1 = test system: ChaGo-K-1
In short: as §1

LCLC-103H = test system: LCLC-103H
In short: as §1

NCI-H460 = test system: NCI-H460
In short: as §1

NCI-H1975 = test system: NCI-H1975
In short: as §1

HCC-44 = test system: HCC-44
In short: as §1

EPLC-272H = test system: EPLC-272H
In short: as §1

NCI-H2228 = test system: NCI-H2228
In short: as §1

NCI-H596 = test system: NCI-H596
In short: as §1

NCI-H3122 = test system: NCI-H3122
In short: as §1

SW 900 = test system: SW 900
In short: as §1

EMC-BAC-2 = test system: EMC-BAC-2
In short: as §1

NCI-H1944 = test system: NCI-H1944
In short: as §1

Nc1cccc2c1CN(C1CCC(=O)NC1=O)C2=O (stereo not given) [Lenalidomide] + O=C(CCCCCCC(=O)Nc1ccccc1)NO [Vorinostat] (partner 1 µM) gave a relative viability (NCI-H1666; first compound 0.253 µM) of 1.05, a relative viability (NCI-H1666; first compound 0.8 µM) of 1.01 and a relative viability (NCI-H1666; first compound 2.53 µM) of 1.14. The relative viability (NCI-H1666; first compound 8 µM) was 1.04, the relative viability (NCI-H2087; first compound 0.253 µM) was 0.809 and the relative viability (NCI-H2087; first compound 2.53 µM) was 0.84. The relative viability (NCI-H2087; first compound 8 µM) was 0.56, the relative viability (NCI-H441; first compound 0.253 µM) was 0.77 and the relative viability (NCI-H441; first compound 0.8 µM) was 0.757. The relative viability (NCI-H441; first compound 2.53 µM) was 0.863, the relative viability (NCI-H441; first compound 8 µM) was 0.944 and the relative viability (NCI-H1355; first compound 0.253 µM) was 0.608. It also gave a relative viability (NCI-H1355; first compound 0.8 µM) of 0.455, a relative viability (NCI-H1355; first compound 2.53 µM) of 0.707 and a relative viability (NCI-H1355; first compound 8 µM) of 0.495. It also gave a relative viability (NCI-H2405; first compound 0.253 µM) of 1.12, a relative viability (NCI-H2405; first compound 0.8 µM) of 0.934 and a relative viability (NCI-H2405; first compound 2.53 µM) of 1.09. It also gave a relative viability (NCI-H2405; first compound 8 µM) of 0.943, a relative viability (PC-14; first compound 0.253 µM) of 0.745 and a relative viability (PC-14; first compound 0.8 µM) of 0.713. The relative viability (PC-14; first compound 2.53 µM) was 0.826, the relative viability (PC-14; first compound 8 µM) was 0.922 and the relative viability (NCI-H2023; first compound 0.253 µM) was 0.637. For the same molecule, the relative viability (NCI-H2023; first compound 0.8 µM) was 0.732, the relative viability (NCI-H2023; first compound 2.53 µM) was 0.652 and the relative viability (NCI-H2023; first compound 8 µM) was 0.468. It also gave a relative viability (LK-2; first compound 0.253 µM) of 0.339, a relative viability (LK-2; first compound 0.8 µM) of 0.252 and a relative viability (LK-2; first compound 2.53 µM) of 0.353. For the same molecule, the relative viability (LK-2; first compound 8 µM) was 0.189, the relative viability (NCI-H2126; first compound 0.253 µM) was 0.771 and the relative viability (NCI-H2126; first compound 0.8 µM) was 0.747. It also gave a relative viability (NCI-H2126; first compound 2.53 µM) of 0.832, a relative viability (NCI-H2126; first compound 8 µM) of 0.658 and a relative viability (HOP-62; first compound 0.253 µM) of 0.56. It also gave a relative viability (HOP-62; first compound 0.8 µM) of 0.565, a relative viability (HOP-62; first compound 2.53 µM) of 0.662 and a relative viability (HOP-62; first compound 8 µM) of 0.519. The relative viability (SW 1573; first compound 0.253 µM) was 0.456, the relative viability (SW 1573; first compound 0.8 µM) was 0.822 and the relative viability (SW 1573; first compound 2.53 µM) was 0.974. The relative viability (SW 1573; first compound 8 µM) was 0.759, the relative viability (NCI-H322M; first compound 0.253 µM) was 0.934 and the relative viability (NCI-H322M; first compound 0.8 µM) was 0.907. For the same molecule, the relative viability (NCI-H322M; first compound 2.53 µM) was 0.962, the relative viability (NCI-H322M; first compound 8 µM) was 0.986 and the relative viability (COR-L23; first compound 0.253 µM) was 0.542. The relative viability (COR-L23; first compound 0.8 µM) was 0.408, the relative viability (COR-L23; first compound 2.53 µM) was 0.498 and the relative viability (COR-L23; first compound 8 µM) was 0.509. For the same molecule, the relative viability (ChaGo-K-1; first compound 0.253 µM) was 0.773, the relative viability (ChaGo-K-1; first compound 0.8 µM) was 0.753 and the relative viability (ChaGo-K-1; first compound 2.53 µM) was 0.838. It also gave a relative viability (ChaGo-K-1; first compound 8 µM) of 0.694, a relative viability (LCLC-103H; first compound 0.253 µM) of 0.761 and a relative viability (LCLC-103H; first compound 0.8 µM) of 0.679. For the same molecule, the relative viability (LCLC-103H; first compound 2.53 µM) was 0.818, the relative viability (LCLC-103H; first compound 8 µM) was 0.616 and the relative viability (NCI-H460; first compound 0.253 µM) was 0.815. The relative viability (NCI-H460; first compound 0.8 µM) was 0.715, the relative viability (NCI-H460; first compound 2.53 µM) was 1.03 and the relative viability (NCI-H460; first compound 8 µM) was 0.783. For the same molecule, the relative viability (NCI-H1975; first compound 0.253 µM) was 0.72, the relative viability (NCI-H1975; first compound 0.8 µM) was 0.768 and the relative viability (NCI-H1975; first compound 2.53 µM) was 0.736. The relative viability (NCI-H1975; first compound 8 µM) was 0.744, the relative viability (HCC-44; first compound 0.253 µM) was 1.05 and the relative viability (HCC-44; first compound 0.8 µM) was 0.926. For the same molecule, the relative viability (HCC-44; first compound 2.53 µM) was 1.04, the relative viability (HCC-44; first compound 8 µM) was 1.08 and the relative viability (EPLC-272H; first compound 0.253 µM) was 0.481. It also gave a relative viability (EPLC-272H; first compound 2.53 µM) of 0.296, a relative viability (EPLC-272H; first compound 8 µM) of 0.451 and a relative viability (NCI-H2228; first compound 0.253 µM) of 0.451. For the same molecule, the relative viability (NCI-H2228; first compound 0.8 µM) was 0.505, the relative viability (NCI-H2228; first compound 2.53 µM) was 1.09 and the relative viability (NCI-H2228; first compound 8 µM) was 1.12. For the same molecule, the relative viability (NCI-H596; first compound 0.253 µM) was 0.584, the relative viability (NCI-H596; first compound 0.8 µM) was 0.464 and the relative viability (NCI-H596; first compound 2.53 µM) was 0.689. It also gave a relative viability (NCI-H596; first compound 8 µM) of 0.52, a relative viability (NCI-H3122; first compound 0.253 µM) of 0.723 and a relative viability (NCI-H3122; first compound 0.8 µM) of 1.05. For the same molecule, the relative viability (NCI-H3122; first compound 2.53 µM) was 0.95, the relative viability (NCI-H3122; first compound 8 µM) was 0.966 and the relative viability (SW 900; first compound 2.53 µM) was 0.679. For the same molecule, the relative viability (SW 900; first compound 8 µM) was 0.429, the relative viability (EMC-BAC-2; first compound 0.253 µM) was 0.74 and the relative viability (EMC-BAC-2; first compound 0.8 µM) was 0.42. It also gave a relative viability (EMC-BAC-2; first compound 2.53 µM) of 0.446, a relative viability (EMC-BAC-2; first compound 8 µM) of 0.335 and a relative viability (NCI-H1944; first compound 0.253 µM) of 0.543. It also gave a relative viability (NCI-H1944; first compound 2.53 µM) of 0.58 and a relative viability (NCI-H1944; first compound 8 µM) of 0.44.

From the supplement of paper PMC10307832
